Reference: patent publication US20160333419A1, “GENE SIGNATURES ASSOCIATED WITH SENSITIVITY TO MDM2 INHIBITORS” (DAIICHI SANKYO COMPANY, LIMITED, priority 2014, published 2016)

Key:
Experiment in all cases: OncoPanel cytotoxicity assay
Type in all cases: cell-based
[1] = tested on: SCC-9; conditions: Homo sapiens, 72 hour incubation
Method in brief: (§1)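 Cells grown in RPMI 1640 with 10% FBS (or a special medium) at 37° C, 5% CO2 were treated 24 hours after seeding for 72 hours with 10 concentrations (3.16-fold dilutions, 0.1% DMSO final). Nuclei were dye-stained and imaged; IC50 was fit from percent of control relative cell count.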

[2] = tested on: SK-MEL-28; conditions: Homo sapiens, 72 hour incubation
Method in brief: as §1

[3] = tested on: Hs 766T; conditions: Homo sapiens, Hs766T, 72 hour incubation
Method in brief: as §1

[4] = tested on: C32; conditions: Homo sapiens, 72 hour incubation
Method in brief: as §1

[5] = tested on: BFTC-905; conditions: Homo sapiens, 72 hour incubation
Method in brief: as §1

[6] = tested on: Caki-1; conditions: Homo sapiens, 72 hour incubation
Method in brief: as §1

[7] = tested on: HLF; conditions: Homo sapiens, 72 hour incubation
Method in brief: as §1

[8] = tested on: A101D; conditions: Homo sapiens, 72 hour incubation
Method in brief: as §1

[9] = tested on: BPH1; conditions: Homo sapiens, BPH-1, 72 hour incubation
Method in brief: as §1

[10] = tested on: CGTH-W-1; conditions: Homo sapiens, 72 hour incubation
Method in brief: as §1

[11] = tested on: Colo 320 HSR; conditions: Homo sapiens, 72 hour incubation
Method in brief: as §1

[12] = tested on: BM-1604; conditions: Homo sapiens, 72 hour incubation
Method in brief: as §1

[13] = tested on: NCI-H661; conditions: Homo sapiens, 72 hour incubation
Method in brief: as §1

[14] = tested on: Hs 578T; conditions: Homo sapiens, 72 hour incubation
Method in brief: as §1

[15] = tested on: RPMI-7951; conditions: Homo sapiens, 72 hour incubation
Method in brief: as §1

[16] = tested on: SW620; conditions: Homo sapiens, SW-620, 72 hour incubation
Method in brief: as §1

[17] = tested on: SNB-19; conditions: Homo sapiens, 72 hour incubation
Method in brief: as §1

[18] = tested on: MDA MB 468; conditions: Homo sapiens, 72 hour incubation
Method in brief: as §1

[19] = tested on: DLD-1; conditions: Homo sapiens, 72 hour incubation
Method in brief: as §1

[20] = tested on: SW872; conditions: Homo sapiens, 72 hour incubation
Method in brief: as §1

[21] = tested on: H4; conditions: Homo sapiens, 72 hour incubation
Method in brief: as §1

[22] = tested on: Hs 695T; conditions: Homo sapiens, 72 hour incubation
Method in brief: as §1

[23] = tested on: T47D; conditions: Homo sapiens, 72 hour incubation
Method in brief: as §1

[24] = tested on: 22Rv1; conditions: Homo sapiens, 72 hour incubation
Method in brief: as §1

[25] = tested on: A498; conditions: Homo sapiens, 72 hour incubation
Method in brief: as §1

[26] = tested on: SKMES1; conditions: Homo sapiens, SK-MES-1, 72 hour incubation
Method in brief: as §1

[27] = tested on: BC-1; conditions: Homo sapiens, BC1, 72 hour incubation
Method in brief: as §1

[28] = tested on: Colo 201; conditions: Homo sapiens, 72 hour incubation
Method in brief: as §1

[29] = tested on: SW837; conditions: Homo sapiens, 72 hour incubation
Method in brief: as §1

[30] = tested on: EM-2; conditions: Homo sapiens, 72 hour incubation
Method in brief: as §1

[31] = tested on: JEG-3; conditions: Homo sapiens, 72 hour incubation
Method in brief: as §1

[32] = tested on: LNCaP; conditions: Homo sapiens, 72 hour incubation
Method in brief: as §1

[33] = tested on: Capan-1; conditions: Homo sapiens, 72 hour incubation
Method in brief: as §1

[34] = tested on: NCIH446; conditions: Homo sapiens, NCI-H446, 72 hour incubation
Method in brief: as §1

[35] = tested on: T24; conditions: Homo sapiens, T-24, 72 hour incubation
Method in brief: as §1

[36] = tested on: L-428; conditions: Homo sapiens, 72 hour incubation
Method in brief: as §1

[37] = tested on: T98G; conditions: Homo sapiens, 72 hour incubation
Method in brief: as §1

[38] = tested on: CCF-STTG1; conditions: Homo sapiens, 72 hour incubation
Method in brief: as §1

[39] = tested on: CFPAC-1; conditions: Homo sapiens, 72 hour incubation
Method in brief: as §1

`CC[C@@H]1CNC2(CC2)CN1C(=O)[C@@H]1C[C@@H](F)CN1C(=O)C1=C(C(C)C)N2C(=N[C@@](C)(c3ccc(Cl)nc3)[C@H]2c2ccc(Cl)c(F)c2)S1` [Compound A, [(5R,6S)-5-(4-Chloro-3-fluorophenyl)-6-(6-chloropyridin-3-yl)-6-methyl-3-(propan-2-yl)-5,6-dihydroimidazo[2,1-b][1,3]thiazol-2-yl][(2S,4R)-2-{[(6R)-6-ethyl-4,7-diazaspiro[2.5]oct-7-yl]carbonyl}-4-fluoropyrrolidin-1-yl]methanone] was tested. Which IC50 [1] did it give?
Its IC50 is > 40 µM.

And the IC50 [2]?
The IC50 was > 40 µM.

What about the IC50 [3] of the same compound?
The IC50 was > 40 µM.

What about the IC50 [4] of the same compound?
Its IC50 is > 40 µM.

What about the IC50 [5] of the same compound?
The IC50 was > 40 µM.

What about the IC50 [6] of the same compound?
Its IC50 is 0.275 µM.

What about the IC50 [7] of the same compound?
The IC50 was > 40 µM.

And the IC50 [8]?
Its IC50 is 0.233 µM.

What about the IC50 [9] of the same compound?
The IC50 was > 40 µM.

And the IC50 [10]?
The IC50 was > 40 µM.

What about the IC50 [11] of the same compound?
Its IC50 is > 40 µM.

And the IC50 [12]?
The IC50 was > 40 µM.

What about the IC50 [13] of the same compound?
The IC50 was > 40 µM.

And the IC50 [14]?
The IC50 was > 40 µM.

And the IC50 [15]?
The IC50 was > 40 µM.

And the IC50 [16]?
Its IC50 is > 40 µM.

What about the IC50 [17] of the same compound?
The IC50 was > 40 µM.

And the IC50 [18]?
The IC50 was 36.2 µM.

What about the IC50 [19] of the same compound?
The IC50 was > 40 µM.

And the IC50 [20]?
Its IC50 is > 40 µM.

And the IC50 [21]?
Its IC50 is 0.172 µM.

What about the IC50 [22] of the same compound?
Its IC50 is 1.28 µM.

And the IC50 [23]?
Its IC50 is 32.3 µM.

What about the IC50 [24] of the same compound?
Its IC50 is 1.31 µM.

What about the IC50 [25] of the same compound?
The IC50 was 1.71 µM.

And the IC50 [26]?
The IC50 was 33.8 µM.

And the IC50 [27]?
Its IC50 is 0.464 µM.

And the IC50 [28]?
Its IC50 is 34.6 µM.

And the IC50 [29]?
The IC50 was > 40 µM.

What about the IC50 [30] of the same compound?
Its IC50 is > 40 µM.

What about the IC50 [31] of the same compound?
The IC50 was 3.62 µM.

And the IC50 [32]?
The IC50 was 0.27 µM.

And the IC50 [33]?
Its IC50 is > 40 µM.

And the IC50 [34]?
Its IC50 is > 40 µM.

And the IC50 [35]?
Its IC50 is > 40 µM.

And the IC50 [36]?
Its IC50 is > 40 µM.

What about the IC50 [37] of the same compound?
Its IC50 is > 40 µM.

What about the IC50 [38] of the same compound?
The IC50 was 0.541 µM.

And the IC50 [39]?
Its IC50 is > 40 µM.

What does the source list for `CC1(C)CCC2(CC1)N[C@@H](C(=O)N[C@@H]1CC[C@@H](C(N)=O)OC1)[C@H](c1ccnc(Cl)c1F)[C@]21C(=O)Nc2cc(Cl)ccc21` [Compound B, (3′R,4′S,5′R)—N-[(3R,6S)-6-carbamoyltetrahydro-2H-pyran-3-yl]-6″-chloro-4′-(2-chloro-3-fluoropyridin-4-yl)-4,4-dimethyl-2″-oxo-1″,2″-dihydrodispiro[cyclohexane-1,2′-pyrrolidine-3′,3″-indole]-5′-carboxamide]?
IC50 [1]: > 10 µM; IC50 [2]: > 10 µM; IC50 [3]: > 10 µM; IC50 [4]: > 10 µM; IC50 [5]: 8.51 µM; IC50 [6]: 0.0387 µM; IC50 [7]: > 10 µM; IC50 [8]: 0.0314 µM; IC50 [9]: > 10 µM; IC50 [10]: 8.04 µM; IC50 [11]: > 10 µM; IC50 [12]: > 10 µM; IC50 [13]: 6.59 µM; IC50 [14]: > 10 µM; IC50 [15]: 8.63 µM; IC50 [16]: 7.12 µM; IC50 [17]: > 10 µM; IC50 [18]: 8.12 µM; IC50 [19]: 8.91 µM; IC50 [20]: > 10 µM; IC50 [21]: 0.024 µM; IC50 [22]: 0.174 µM; IC50 [23]: 7.76 µM; IC50 [24]: 0.109 µM; IC50 [25]: 0.119 µM; IC50 [26]: 8.73 µM; IC50 [27]: 0.074 µM; IC50 [28]: 7.33 µM; IC50 [29]: > 10 µM; IC50 [30]: > 10 µM; IC50 [31]: 0.249 µM; IC50 [32]: 0.064 µM; IC50 [33]: > 10 µM; IC50 [34]: > 10 µM; IC50 [35]: > 10 µM; IC50 [36]: > 10 µM; IC50 [37]: > 10 µM; IC50 [38]: 0.0852 µM; IC50 [39]: > 10 µM
